Assay results published in US20220289657A1, “COMPOSITION FOR PREVENTING OR TREATING BACTERIAL INFECTIOUS DISEASE COMPRISING 4-GINGEROL DERIVATIVE COMPOUND AS ACTIVE INGREDIENT” (KOREA UNIVERSITY RESEARCH AND BUSINESS FOUNDATION, SEJONG …, priority 2019, published 2022).
Marks after values point to notes of the source that are not given here.

Target: T1, RhlR (Pseudomonas aeruginosa, UniProt P54292)
T1 construct: expressed in transfected cells; host or cells: E. coli sdiA variant co-transformed with pJN105R and pSC11 (RhlA::lacZ)
Assay: cell-based
Conditions: footnotes not given; for activity at 100 µM: read-out: Relative RhlR activity Agonism, Table 2, matches the 100 column of Table 3; for remaining activity at 100 µM: read-out: Relative RhlR activity Antagonism, Table 2; for remaining activity at 100 µM / Relative RhlR activity Antagonism: 100 μM per Table 3, lower = stronger antagonism; for Relative RhlR activity Antagonism: Table 2
Experimental: Escherichia coli (E. coli) DH5a includes LuxR homolog SdiA detecting endogenous AHL synthesized by other microbial species, particularly, BHL.
For RhlR reporter strain analysis, the present invention used pJN105R (RhlR expression plasmid), anspSC11 (RhlA::lacZ fusion plasmid) and an sdiA variant co-transformed with the two plasmids. 1% of an overnight-cultured reporter strain (OD 595 nm=1.0) supplemented with 10 μg/mL gentamicin and 50 μg/mL ampicillin was cultured in a Luria-Bertani (LB) medium (Difco, Detroit, Mich., USA) with a positive control or a compound (0-1000 μM) and BHL (0-10 μM) (Sigma-Aldrich) at 37° C. for 2 hours. 0.4% arabinose (Sigma-Aldrich) was reacted with the resulting product at 37° C. for 1.5 hours. β-galactosidase activity was evaluated using a Tropix plus kit (Applied Biosystems, CA, USA), and OD 595 nm and luminescence were measured using a VICTOR x5 multimode plate reader (PerkinElmer, Waltham, Mass., USA). Relative RhlR activity was quantified by measuring luminescence at OD 595 nm. In addition, for LasR reporter strain analysis, the present invention used pJN105L (LasR expression plasmid) and pSC11 (lasI::lacZ fusion plasmid), E. coli DH5a co-transformed with the two plasmids, and OdDHL (Sigma-Aldrich).

T1 sequence (P54292 whole entry): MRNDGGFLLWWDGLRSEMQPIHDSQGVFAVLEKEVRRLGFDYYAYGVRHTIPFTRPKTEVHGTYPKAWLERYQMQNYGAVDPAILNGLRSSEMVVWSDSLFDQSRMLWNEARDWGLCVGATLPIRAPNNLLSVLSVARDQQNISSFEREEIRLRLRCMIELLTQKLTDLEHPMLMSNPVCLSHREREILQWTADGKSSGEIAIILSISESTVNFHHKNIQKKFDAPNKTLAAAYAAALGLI

| Structure (SMILES) | activity at 100 µM [%] | remaining activity at 100 µM [%] | Relative RhlR activity Antagonism |
| --- | --- | --- | --- |
| CCCCC[C@@H](O)C#Cc1ccc(F)c(F)c1 [Compound 35b, (R)-1-(3,4-Difluorophenyl)oct-1-yn-3-ol] | 3 | 72 | – |
| CCCC(O)CC(=O)/C=C/c1ccc(OC)c(OC)c1 (stereo not drawn) [Compound 11l, (E)-1-(3,4-Dimethoxyphenyl)-5-hydroxyoct-1-en-3-one] | 1 | 69 | – |
| CCCC(O)CC(=O)CCc1cccc(O)c1 (stereo not drawn) [Compound 12e, 5-Hydroxy-1-(3-hydroxyphenyl)octan-3-one] | 2 | 81 | – |
| CCCCCC(O)/C=C\c1ccc(O)c(OC)c1 (stereo not drawn) [Compound 25, (Z)-4-(3-Hydroxyoct-1-en-1-yl)-2-methoxyphenol] | 3 | 79 | 79** % |
| CCCC(O)CC(=O)CCc1ccc(OC)c(OC)c1 (stereo not drawn) [Compound 12l, 1-(3,4-Dimethoxyphenyl)-5-hydroxyoctan-3-one] | 1 | 94 | – |
| CCCCC(O)CC(=O)CCc1ccc(O)c(OC)c1 (stereo not drawn) [Compound 3, 5-Hydroxy-1-(4-hydroxy-3-methoxyphenyl)nonan-3-one] | 2 | 62 | – |
| CCCC(O)CC(=O)CCc1cc(F)cc(OC)c1 (stereo not drawn) [Compound 12r, 1-(3-Fluoro-5-methoxyphenyl)-5-hydroxyoctan-3-one] | 3 | 85 | – |
| CCCC[C@@H](O)C#Cc1ccc(F)c(F)c1 [Compound 34b, (R)-1-(3,4-Difluorophenyl)hept-1-yn-3-ol] | 3 | 67 | – |
| CCCC(O)CC(=O)CCc1ccc(O)c(O)c1 (stereo not drawn) [Compound 12k, 1-(3,4-Dihydroxyphenyl)-5-hydroxyoctan-3-one] | 2 | 47 | – |
| CCCC(O)CC(=O)CCc1ccc(O)c(OCC)c1 (stereo not drawn) [Compound 12n, 1-(3-Ethoxy-4-hydroxyphenyl)-5-hydroxyoctan-3-one] | 1 | 98 | – |
| CCCCCCC(O)CC(=O)CCc1ccc(O)c(OC)c1 (stereo not drawn) [Compound 5, 5-Hydroxy-1-(4-hydroxy-3-methoxyphenyl)undecan-3-one] | 3 | 83 | – |
| CCCC(O)CC(=O)/C=C/c1ccc(N(C)C)cc1 (stereo not drawn) [Compound 11j, (E)-1-(4-(Dimethylamino)phenyl)-5-hydroxyoct-1-en-3-one] | 2 | 53 | 53** % |
| CCCC(O)CC(=O)/C=C/c1ccc(C)c(C)c1 (stereo not drawn) [Compound 11p, (E)-1-(3,4-Dimethylphenyl)-5-hydroxyoct-1-en-3-one] | 2 | 72 | 72** % |
| CCCCCC(O)/C=C/c1ccc(O)c(OC)c1 (stereo not drawn) [Compound 15b, (E)-4-(3-Hydroxyoct-1-en-1-yl)-2-methoxyphenol] | 2 | 41 | 41** % |
| CCCCCC(=O)CCc1ccc(O)c(OC)c1 [Compound 14b, 1-(4-Hydroxy-3-methoxyphenyl)octan-3-one] | 2 | 49 | 49** % |
| CCCC(O)CC(=O)CCc1cccc(OC)c1 (stereo not drawn) [Compound 12c, 5-Hydroxy-1-(3-methoxyphenyl)octan-3-one] | 2 | 90 | – |
| CCCCCC(=O)CCc1ccc(F)c(F)c1 [Compound 14a, 1-(3,4-Difluorophenyl)octan-3-one] | 4 | 55 | – |
| CCCC(O)CC(=O)/C=C/c1ccccc1 (stereo not drawn) [Compound 11b, (E)-5-Hydroxy-1-phenyloct-1-en-3-one] | 4 | 93 | 93* % |
